From PubChem BioAssay (NCI) come the findings set out here.

Test systems include SK-MEL-28 melanoma; A549 NSCLC; MDA-MB-435; K-562 leukemia; NCI-H23 lung; OVCAR-8 ovarian; MCF7 breast; PC-3 prostate; UACC-62 melanoma; HOP-62 NSCLC.
Holding throughout (assay): inhibition of tumour cell growth, NCI panel, 48 h

Several values for one entry are separate records, joined by “and”; a condition that tells them apart may be missing. Equal values may be shown once.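 Following 48 hours of exposure in 96-well plates, responses at five concentrations were used to interpolate endpoints linearly. GI50 is the concentration that inhibits growth by half. TGI denotes the concentration required for complete inhibition of growth.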

Regarding `COc1cc(N(CCC#N)CCC#N)ccc1/C(N=Nc1ccc([N+](=O)[O-])cc1)=N/NC(=O)c1cc(Br)ccc1O`, the GI50 in the experiment with SK-MEL-28 melanoma is 80.6 µg/mL; with A549 NSCLC, 44.4 µg/mL; with MDA-MB-435, 52.2 µg/mL; with K-562 leukemia it was 63.1 µg/mL; in the experiment with NCI-H23 lung it was 51.2 µg/mL; with OVCAR-8 ovarian, 52.8 µg/mL. Also, the GI50 in the experiment with MCF7 breast was 42.3 µg/mL; with PC-3 prostate, 37 µg/mL; in the experiment with UACC-62 melanoma, 40.9 µg/mL. The TGI with SK-MEL-28 melanoma was more than 150 µg/mL; in the experiment with A549 NSCLC it was 140 µg/mL; in the experiment with MDA-MB-435, more than 150 µg/mL; in the experiment with K-562 leukemia it was more than 150 µg/mL; in the experiment on NCI-H23 lung, more than 150 µg/mL; in the experiment on OVCAR-8 ovarian, more than 150 µg/mL. For the same compound, the TGI in the experiment on MCF7 breast, in the experiment on PC-3 prostate and in the experiment with UACC-62 melanoma was more than 150 µg/mL in each case.

As for `Cn1c2ccccc2c2c3c(c4c5cc(Br)ccc5n(C)c4c21)C(=O)N(O)C3=O`, the GI50 is 584 nM in the experiment on SK-MEL-28 melanoma; 262 nM in the experiment on A549 NSCLC; 319 nM with MDA-MB-435; 197 nM in the experiment on K-562 leukemia; 113 nM in the experiment with OVCAR-8 ovarian; 57.9 nM in the experiment with MCF7 breast. Besides, the results for the GI50 with PC-3 prostate and in the experiment with UACC-62 melanoma were 497 nM and 308 nM, respectively. Further, the TGI with SK-MEL-28 melanoma, in the experiment with A549 NSCLC, in the experiment on MDA-MB-435, in the experiment with K-562 leukemia, in the experiment with OVCAR-8 ovarian and with MCF7 breast was more than 100000 nM in each case. Moreover, the TGI in the experiment on PC-3 prostate and in the experiment on UACC-62 melanoma was more than 100000 nM in each case.

For the compound `COc1cc2nc(-c3ccc(Cl)cc3)cc(OCCCN3CCCCC3)c2cc1OC`, the GI50 in the experiment with SK-MEL-28 melanoma is 1450 nM; with A549 NSCLC, 1900 nM; with NCI-H23 lung it was 2950 nM; in the experiment on OVCAR-8 ovarian it was 1770 nM; with MCF7 breast, 1550 nM; in the experiment with HOP-62 NSCLC, 2370 nM. Moreover, the values for the GI50 with PC-3 prostate and in the experiment on UACC-62 melanoma were 1740 nM and 1940 nM, respectively. In addition, the TGI in the experiment on SK-MEL-28 melanoma was 3070 nM; in the experiment with A549 NSCLC it was more than 100000 nM; with NCI-H23 lung it was more than 100000 nM; in the experiment on OVCAR-8 ovarian, more than 100000 nM; in the experiment with MCF7 breast, 4110 nM; in the experiment on HOP-62 NSCLC, more than 100000 nM. Besides, the results for the TGI in the experiment with PC-3 prostate and in the experiment on UACC-62 melanoma were more than 100000 nM and 4420 nM, respectively.

As to `O=C1/C(=C/c2ccc(Br)cc2)COc2ccc(O)c(O)c21`, the GI50 is 1550 nM in the experiment on SK-MEL-28 melanoma; 1770 nM with A549 NSCLC; 427 nM in the experiment on MDA-MB-435; 282 nM with K-562 leukemia; 1620 nM in the experiment with NCI-H23 lung; 675 nM with OVCAR-8 ovarian. The GI50 is 353 nM in the experiment with MCF7 breast, 599 nM in the experiment on PC-3 prostate and 1070 nM in the experiment on UACC-62 melanoma. Also, the TGI is 3250 nM in the experiment on SK-MEL-28 melanoma; 6770 nM in the experiment on A549 NSCLC; 1590 nM in the experiment with MDA-MB-435; more than 100000 nM in the experiment on K-562 leukemia; 3650 nM with NCI-H23 lung; 1670 nM in the experiment with MCF7 breast. In addition, the TGI in the experiment on PC-3 prostate is 2420 nM; with UACC-62 melanoma, 2400 nM.

With `[Cl][Hg][c]1cc(Br)cc(Br)c1`, the GI50 in the experiment on SK-MEL-28 melanoma was 1570 nM; in the experiment with A549 NSCLC, 12900 nM; in the experiment with MDA-MB-435, 1800 nM; in the experiment with K-562 leukemia, 1120 nM; with NCI-H23 lung, 2650 nM; with OVCAR-8 ovarian, 2780 nM. For the same compound, the figures for the GI50 in the experiment with HOP-62 NSCLC, in the experiment with PC-3 prostate and in the experiment on UACC-62 melanoma were 1830 nM, 2160 nM and 1620 nM, respectively. Also, the TGI in the experiment on SK-MEL-28 melanoma amounted to 2970 nM; in the experiment on A549 NSCLC it was 30400 nM; in the experiment with MDA-MB-435 it was 3820 nM; with K-562 leukemia it was 3810 nM; with NCI-H23 lung, 9020 nM; in the experiment with OVCAR-8 ovarian it was 7640 nM. The TGI came to 3520 nM in the experiment on HOP-62 NSCLC, 7200 nM in the experiment with PC-3 prostate and 3420 nM in the experiment with UACC-62 melanoma.

For the compound `Cc1nc2c(-c3cnc(N)nc3)nc(N3CCOCC3)nc2n1C(C)C`, the TGI was 524 nM and 3510 nM in the experiment on SK-MEL-28 melanoma; 2660 nM with A549 NSCLC; 1320 nM and 1160 nM in the experiment with MDA-MB-435; more than 100000 nM in the experiment with K-562 leukemia; > 5510 nM and 4370 nM in the experiment with OVCAR-8 ovarian; more than 100000 nM with MCF7 breast. Besides, the TGI in the experiment with HOP-62 NSCLC is 3500 nM and 772 nM; in the experiment on PC-3 prostate, more than 100000 nM; with UACC-62 melanoma, 334 nM and 305 nM. The GI50 was 182 nM and 113 nM in the experiment on MDA-MB-435; 1000 nM and 661 nM in the experiment with K-562 leukemia; 87.6 nM and 29.8 nM in the experiment on MCF7 breast.

Regarding `C=C1C(=O)O[C@@H]2C[C@@H]1CC/C(C)=C/CC/C(C)=C/CC[C@@]2(C)O`, the GI50 in the experiment on SK-MEL-28 melanoma is 22200 nM; in the experiment with A549 NSCLC it was 18200 nM; in the experiment on MDA-MB-435 it was 5070 nM; with K-562 leukemia, 4700 nM; in the experiment on NCI-H23 lung, 4140 nM; in the experiment with OVCAR-8 ovarian it was 21700 nM. For the same compound, the GI50 in the experiment with MCF7 breast is 11900 nM; with PC-3 prostate, 6730 nM; in the experiment on UACC-62 melanoma it was 14000 nM. For the same compound, the TGI was 49800 nM with SK-MEL-28 melanoma; 41200 nM in the experiment with A549 NSCLC; 18500 nM with MDA-MB-435; 17300 nM in the experiment with K-562 leukemia; 16200 nM in the experiment with NCI-H23 lung; 85400 nM in the experiment on OVCAR-8 ovarian. Moreover, the TGI with MCF7 breast was determined as 36200 nM; in the experiment with PC-3 prostate, 21300 nM; in the experiment on UACC-62 melanoma it was 29300 nM.
